Measured values taken from publication PMC6522510 (Nature Communications, 2019).
Like-named read-outs stand apart in the source and are kept apart here.

What was measured:
Assay in all cases: cells
Parameters in all cases: species or system AML cell lines (8); Secondary HTS, 10-point dose-response in triplicate, Cell Titer Glo viability, four-parameter fit EC50
[1] = test system: MOLM-13; details: Homo sapiens, read-out: MOLM-13
[2] = test system: MV4-11; details: Homo sapiens, read-out: MV4-11
[3] = test system: CHRF288-11; details: read-out: CHRF288-11
[4] = test system: CMK; details: Homo sapiens, read-out: CMK
[5] = test system: CMS; details: read-out: CMS
[6] = test system: M07e; details: M-07e, read-out: M07e
[7] = test system: ML-2; details: Homo sapiens, read-out: ML-2
[8] = test system: U937; details: Homo sapiens, read-out: U937

SMILES	EC50 ([1]; MOLM-13, 72 h) [µM]	EC50 ([2]; MV4-11, 72 h) [µM]	EC50 ([8]; U-937, 72 h) [µM]	EC50 ([3]; 72 h) [µM]	EC50 ([4]; CMK, 72 h) [µM]	EC50 ([5]; 72 h) [µM]	EC50 ([6]; 72 h) [µM]	EC50 ([7]; ML-2, 72 h) [µM]	EC50 ([1]; 72 h cell viability) [µM]	EC50 ([2]; 72 h cell viability) [µM]	EC50 ([3]; 72 h cell viability) [µM]	EC50 ([4]; 72 h cell viability) [µM]	EC50 ([5]; 72 h cell viability) [µM]	EC50 ([6]; 72 h cell viability) [µM]	EC50 ([7]; 72 h cell viability) [µM]	EC50 ([8]; U-937, 72 h cell viability) [µM]
CC(C)(C)c1ccc(S(=O)(=O)/C=C/C#N)cc1 [SJ000287676, BAY 11-7085]	1.5	1.4	0.93	1.4	3.9	3.1	3.2	1								
COCCCn1c(N)c(C(=O)NC2CCCC2)c2nc3ccccc3nc21 [SJ000479457, CAY10591]	> 10	> 10	> 10	> 10	> 10	> 10	> 10	> 10								
COc1cc2ncnc(-n3nc(-c4ccccn4)nc3N)c2cc1OC [SJ000510891, CP-466722]	> 10	> 10	> 10	> 10	> 10	> 10	0.63	> 10								
CO[C@H]1/C=C\C=C(/C)C(=O)NC2=CC(=O)C(NCCN(C)C)=C(C[C@@H](C)C[C@H](OC)[C@H](O)[C@@H](C)/C=C(\C)[C@@H]1OC(N)=O)C2=O [SJ000534765, 17-DMAG]	0.039	0.044	0.025	0.52	0.75	0.092	2	0.046								
COc1cc(N2CCC(N3CCN(C)CC3)CC2)ccc1Nc1ncc(Cl)c(Nc2ccccc2S(=O)(=O)C(C)C)n1 [SJ000565231, NVP-TAE684]	0.29	0.25	> 10	3.6	0.46	> 10	3.8	0.36								
Cc1ccccc1-n1c(Cn2cnc3c(N)ncnc32)nc2cccc(C)c2c1=O [SJ000571308, IC-87114]	> 10	> 10	> 10	> 10	> 10	> 10	> 10	> 10								
CCNC(=O)C[C@@H]1N=C(c2ccc(Cl)cc2)c2cc(OC)ccc2-n2c(C)nnc21 [SJ000574791, I-BET-762]	4.6	0.97	4.3	> 10	> 10	9.8	0.001	9.8								
COc1cc(O)c2c(c1)/C=C/C[C@H](O)[C@H](O)C(=O)/C=C\C[C@H](C)OC2=O [SJ000773172, (5Z)-7-OXOZEAENOL]	> 10	> 10	6.6	2.1	0.37	7.3	0.84	5.5								
Nc1[nH]nc2nnc(-c3c(-c4ccccc4)nn4ccccc34)cc12 [SJ000773182, FR 180204]	> 10	> 10	> 10	> 10	> 10	> 10	> 10	> 10								
O=C(Nc1ccccc1-c1cn2c(CN3CCNCC3)csc2n1)c1cnc2ccccc2n1 [SJ000784238, SRT1720]	> 10	> 10	1.5	5.6	> 10	> 10	4.4	> 10								
Cc1ccc(NC(=O)CCCCCC(=O)Nc2ccccc2N)cc1 [SJ000784239, PIMELIC DIPHENYLAMIDE 106]	> 10	> 10	> 10	> 10	> 10	8.2	6.7	> 10								
Cc1cc(Cl)ccc1OCCCC(=O)NO [SJ000784245, DROXINOSTAT]	> 10	> 10	> 10	0.37	> 10	6.81	> 10	> 10								
O=C(O)Cc1ccccc1 [SJ000784253, SODIUM PHENYLACETATE]									2.1	> 10	> 10	> 10	> 10	> 10	> 10	> 10
CC(=O)Nc1ccc(NC(=S)NC(=O)c2ccc(C(C)(C)C)cc2)cc1 [SJ000784260, TENOVIN-1]	> 10	> 10	> 10	> 10	> 10	0.77	> 10	> 10								
COc1cc2c(NC3CCN(C)CC3)nc(N3CCCN(C)CC3)nc2cc1OCCCN(C)C [SJ000784262, UNC0224]	> 10	> 10	> 10	> 10	> 10	> 10	> 10	> 10								

The next lines start with results.

EC50 ([1]; MOLM-13, 72 h) [µM]	EC50 ([2]; MV4-11, 72 h) [µM]	EC50 ([8]; U-937, 72 h) [µM]	SMILES	EC50 ([3]; 72 h) [µM]	EC50 ([4]; CMK, 72 h) [µM]	EC50 ([5]; 72 h) [µM]	EC50 ([6]; 72 h) [µM]	EC50 ([7]; ML-2, 72 h) [µM]	EC50 ([1]; 72 h cell viability) [µM]	EC50 ([2]; 72 h cell viability) [µM]	EC50 ([3]; 72 h cell viability) [µM]	EC50 ([4]; 72 h cell viability) [µM]	EC50 ([5]; 72 h cell viability) [µM]	EC50 ([6]; 72 h cell viability) [µM]	EC50 ([7]; 72 h cell viability) [µM]	EC50 ([8]; U-937, 72 h cell viability) [µM]
5.3	> 10	> 10	O=C(c1ccc(Cl)cc1Cl)n1nnc2ccccc21 [SJ000142379, ITSA1]	6.1	> 10	> 10	> 10	6.2								
4.5	> 10	> 10	Nc1ncn([C@@H]2O[C@H](CO)[C@@H](O)[C@H]2O)c(=O)n1 [SJ000285227, 5-AZACYTIDINE]	> 10	8	6.83	> 10	> 10								
> 10	> 10	> 10	O=C1Nc2ccc(I)cc2/C1=C/c1cc(Br)c(O)c(Br)c1 [SJ000287883, GW 5074]	> 10	> 10	> 10	> 10	> 10								
2	> 10	> 10	O=c1[nH]c2ccccc2c2ccccc12 [SJ000288131, 6(5H)-PHENANTHRIDINONE]	2.3	> 10	> 10	> 10	2.7								
> 10	> 10	> 10	COc1cccc(-c2cc(=O)c3ccccc3o2)c1N [SJ000288145, PD 98059]	> 10	> 10	> 10	> 10	> 10								
> 10	> 10	> 10	N#CC(=C(/N)Sc1ccccc1N)/C(C#N)=C(\N)Sc1ccccc1N [SJ000288250, U0126]	> 10	> 10	> 10	> 10	> 10								
0.0056	0.24	0.0372	CCc1c2c(nc3ccc(O)cc13)-c1cc3c(c(=O)n1C2)COC(=O)[C@]3(O)CC [SJ000311679, SN-38]	0.00949	0.0232	> 10	0.0445	0.00251								
0.0771	0.042	0.0364	CC(/C=C/C(=O)NO)=C\[C@@H](C)C(=O)c1ccc(N(C)C)cc1 [SJ000534770, TRICHOSTATIN A]	0.0434	0.047	0.0442	0.09	0.114								
7.7	> 10	> 10	C/C(=C\C(=O)Nc1ccccc1C(=O)O)c1ccc2ccccc2c1 [SJ000565230, BIBR-1532]	5	> 10	> 10	> 10	> 10								
0.94	1.5	0.41	Oc1cccc(-c2nc(N3CCOCC3)c3oc4ncccc4c3n2)c1 [SJ000574285, PIK 103]	> 10	3.2	> 10	> 10	> 10								
0.14	0.057	> 10	COc1cc(Nc2ncc(F)c(Nc3ccc4c(n3)NC(=O)C(C)(C)O4)n2)cc(OC)c1OC [SJ000772392, R406]	> 10	> 10	0.9	> 10	> 10								
1.5	> 10	2.8	O=C(Nc1cccc(NC(=O)c2cccc(O)c2O)c1)c1cccc(O)c1O [SJ000784251, MST312]	2	> 10	2.9	5.2	3.7								
